Measured values taken from ChEMBL document CHEMBL1201862, “PubChem BioAssay data set” (2004).
Calls of active or inactive are those of the source.

How the values were obtained:
[1] = A Cell Based Secondary Assay To Explore Cytotoxicity of Compounds that Sensitize Mycobacterium Tuberculosis to Beta-Lactam Antibiotics.; assay type: functional
Estrogen receptor = target: T1, Estrogen receptor (Homo sapiens, UniProt P03372);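 also: potency for inhibiting coactivator peptide recruitment to the receptor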
T1 sequence (P03372 whole entry): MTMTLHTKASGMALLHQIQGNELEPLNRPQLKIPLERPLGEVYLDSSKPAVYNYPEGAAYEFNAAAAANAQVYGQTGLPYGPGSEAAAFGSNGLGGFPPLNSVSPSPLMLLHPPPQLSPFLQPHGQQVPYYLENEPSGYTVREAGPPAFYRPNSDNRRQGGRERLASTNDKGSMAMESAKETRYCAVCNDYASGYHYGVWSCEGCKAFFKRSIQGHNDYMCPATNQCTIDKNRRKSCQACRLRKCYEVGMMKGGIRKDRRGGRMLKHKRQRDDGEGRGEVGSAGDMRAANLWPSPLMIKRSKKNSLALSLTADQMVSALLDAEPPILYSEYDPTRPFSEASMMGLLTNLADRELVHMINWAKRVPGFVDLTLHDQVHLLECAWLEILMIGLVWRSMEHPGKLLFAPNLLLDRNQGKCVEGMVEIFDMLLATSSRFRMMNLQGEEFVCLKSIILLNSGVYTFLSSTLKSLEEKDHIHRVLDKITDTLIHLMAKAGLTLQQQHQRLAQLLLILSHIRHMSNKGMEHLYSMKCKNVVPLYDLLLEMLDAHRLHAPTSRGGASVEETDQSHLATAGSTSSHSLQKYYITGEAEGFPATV

fMet-Leu-Phe receptor = target: T2, fMet-Leu-Phe receptor (Homo sapiens, UniProt P21462); assay: formyl peptide receptor binders – dose response (AID 519); assay type: functional
T2 sequence (P21462 whole entry): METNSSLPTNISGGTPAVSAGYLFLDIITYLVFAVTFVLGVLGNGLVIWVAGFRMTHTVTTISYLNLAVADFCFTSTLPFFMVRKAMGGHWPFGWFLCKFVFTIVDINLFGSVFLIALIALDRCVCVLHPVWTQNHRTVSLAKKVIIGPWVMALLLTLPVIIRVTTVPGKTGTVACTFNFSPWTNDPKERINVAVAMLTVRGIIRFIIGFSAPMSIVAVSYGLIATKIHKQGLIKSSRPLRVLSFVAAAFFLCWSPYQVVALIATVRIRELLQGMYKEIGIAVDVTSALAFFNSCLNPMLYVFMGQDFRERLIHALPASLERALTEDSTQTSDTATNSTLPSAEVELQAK

[2] = A cytotoxicity screen of small molecule inhibitors of the PhoP region in Salmonella typhi identified in the primary screen. [Related pubchem assays: 1850, 1864, 1985 ]; assay type: functional
[3] = target: T3, Voltage-gated N-type calcium channel alpha-1B subunit/Amyloid beta A4 precursor protein-binding family A member 1 (Homo sapiens, UniProt Q00975+Q02410); assay type: protein assay
[4] = target: T3, Voltage-gated N-type calcium channel alpha-1B subunit/Amyloid beta A4 precursor protein-binding family A member 1; assay type: protein assay; remark: listed apart in the source
[5] = target: T4, Short transient receptor potential channel 4 (Mus musculus, UniProt Q9QUQ5); assay: block of DAMGO-driven TRPC4 calcium entry – cell-based, HEK293 TRPC4/mu-opioid, Fluo-4 calcium, dose response (AID 434942); assay type: functional;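 also: potency of inhibitors blocking the TRPC4 calcium response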
T4 sequence (Q9QUQ5 whole entry): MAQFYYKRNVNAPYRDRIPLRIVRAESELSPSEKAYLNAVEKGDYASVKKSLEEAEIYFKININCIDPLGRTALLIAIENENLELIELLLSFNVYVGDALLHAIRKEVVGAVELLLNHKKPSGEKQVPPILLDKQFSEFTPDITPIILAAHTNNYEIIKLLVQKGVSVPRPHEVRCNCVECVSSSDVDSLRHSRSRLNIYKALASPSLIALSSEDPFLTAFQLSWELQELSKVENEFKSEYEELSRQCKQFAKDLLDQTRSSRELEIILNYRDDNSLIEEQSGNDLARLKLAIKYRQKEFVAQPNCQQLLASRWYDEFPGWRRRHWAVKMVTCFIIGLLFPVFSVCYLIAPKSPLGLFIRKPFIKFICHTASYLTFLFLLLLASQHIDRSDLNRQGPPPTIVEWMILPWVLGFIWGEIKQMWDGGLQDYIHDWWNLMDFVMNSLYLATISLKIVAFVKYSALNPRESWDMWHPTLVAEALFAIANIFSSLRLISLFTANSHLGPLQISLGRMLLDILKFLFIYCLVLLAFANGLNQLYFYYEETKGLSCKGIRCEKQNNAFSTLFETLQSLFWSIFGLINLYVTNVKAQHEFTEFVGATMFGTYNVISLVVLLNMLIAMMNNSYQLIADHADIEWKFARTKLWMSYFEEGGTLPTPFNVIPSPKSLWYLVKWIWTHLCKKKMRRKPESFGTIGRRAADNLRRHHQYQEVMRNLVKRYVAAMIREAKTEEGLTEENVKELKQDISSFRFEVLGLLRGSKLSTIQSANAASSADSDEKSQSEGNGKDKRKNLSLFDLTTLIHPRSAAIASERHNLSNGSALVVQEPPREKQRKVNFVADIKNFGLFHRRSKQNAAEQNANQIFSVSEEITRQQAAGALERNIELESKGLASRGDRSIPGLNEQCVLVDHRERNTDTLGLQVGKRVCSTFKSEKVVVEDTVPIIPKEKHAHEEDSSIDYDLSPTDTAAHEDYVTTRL

[6] = target: Eukaryotic translation initiation factor 4E (Mus musculus, UniProt P63073); assay: blockers of eIF4G binding by eIF4E – biochemical, TR-FRET, dose response (AID 855); assay type: functional;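 also: potency for disrupting eIF4E binding to eIF4GI seen as loss of FRET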
Tumor necrosis factor = Tumor necrosis factor (Homo sapiens, UniProt P01375); assay: analog potency on TNFa NF-kB signaling – cell-based, revised, SAR follow-up (AID 2337); assay type: functional
[7] = target: T5, Nucleotide-binding oligomerization domain-containing protein 1 (Homo sapiens, UniProt Q9Y239); assay: blockers of NOD1 pathway activity – revised, SAR follow-up (AID 2333); assay type: functional
T5 sequence (Q9Y239 whole entry): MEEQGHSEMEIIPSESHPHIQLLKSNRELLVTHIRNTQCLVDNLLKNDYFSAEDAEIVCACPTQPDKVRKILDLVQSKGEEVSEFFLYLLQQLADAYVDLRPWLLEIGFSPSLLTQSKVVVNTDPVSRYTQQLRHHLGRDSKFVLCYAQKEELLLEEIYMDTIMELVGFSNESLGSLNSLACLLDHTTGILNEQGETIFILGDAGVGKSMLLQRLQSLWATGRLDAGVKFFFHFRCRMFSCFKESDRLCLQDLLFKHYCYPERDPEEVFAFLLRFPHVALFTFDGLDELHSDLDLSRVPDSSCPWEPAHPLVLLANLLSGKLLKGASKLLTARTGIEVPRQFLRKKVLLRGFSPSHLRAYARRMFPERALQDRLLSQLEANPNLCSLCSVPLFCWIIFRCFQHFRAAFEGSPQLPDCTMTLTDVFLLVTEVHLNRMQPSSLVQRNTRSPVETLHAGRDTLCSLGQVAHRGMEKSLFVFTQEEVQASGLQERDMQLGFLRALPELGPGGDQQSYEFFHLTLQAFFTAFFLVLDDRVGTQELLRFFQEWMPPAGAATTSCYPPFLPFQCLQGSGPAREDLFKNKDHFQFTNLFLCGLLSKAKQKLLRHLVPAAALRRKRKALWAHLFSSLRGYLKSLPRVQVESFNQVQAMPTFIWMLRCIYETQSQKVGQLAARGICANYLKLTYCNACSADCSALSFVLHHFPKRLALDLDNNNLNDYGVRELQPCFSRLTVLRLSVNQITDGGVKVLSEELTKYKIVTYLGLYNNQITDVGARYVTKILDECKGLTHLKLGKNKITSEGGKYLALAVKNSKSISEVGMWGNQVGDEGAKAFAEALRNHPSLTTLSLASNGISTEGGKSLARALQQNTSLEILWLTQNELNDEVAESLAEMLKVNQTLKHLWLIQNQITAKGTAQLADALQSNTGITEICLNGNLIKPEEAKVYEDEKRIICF

HEK293 = assay: cells; conditions: Homo sapiens;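 also: cells exposed to compound for 14 hours overnight before viability readout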
[8] = target: T6, Epstein-Barr nuclear antigen 1 (Epstein-Barr virus (strain B95-8) (HHV-4) (Human herpesvirus 4), UniProt P03211); assay: inhibition of EBV nuclear antigen 1 DNA binding – biochemical, fluorescence polarization, 1536-well, dose response (AID 2381); parameters: species or system human gammaherpesvirus 4;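 also: fluorescence polarization of a Cy5 DNA probe bound by EBNA-1 protein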
T6 sequence (P03211 whole entry): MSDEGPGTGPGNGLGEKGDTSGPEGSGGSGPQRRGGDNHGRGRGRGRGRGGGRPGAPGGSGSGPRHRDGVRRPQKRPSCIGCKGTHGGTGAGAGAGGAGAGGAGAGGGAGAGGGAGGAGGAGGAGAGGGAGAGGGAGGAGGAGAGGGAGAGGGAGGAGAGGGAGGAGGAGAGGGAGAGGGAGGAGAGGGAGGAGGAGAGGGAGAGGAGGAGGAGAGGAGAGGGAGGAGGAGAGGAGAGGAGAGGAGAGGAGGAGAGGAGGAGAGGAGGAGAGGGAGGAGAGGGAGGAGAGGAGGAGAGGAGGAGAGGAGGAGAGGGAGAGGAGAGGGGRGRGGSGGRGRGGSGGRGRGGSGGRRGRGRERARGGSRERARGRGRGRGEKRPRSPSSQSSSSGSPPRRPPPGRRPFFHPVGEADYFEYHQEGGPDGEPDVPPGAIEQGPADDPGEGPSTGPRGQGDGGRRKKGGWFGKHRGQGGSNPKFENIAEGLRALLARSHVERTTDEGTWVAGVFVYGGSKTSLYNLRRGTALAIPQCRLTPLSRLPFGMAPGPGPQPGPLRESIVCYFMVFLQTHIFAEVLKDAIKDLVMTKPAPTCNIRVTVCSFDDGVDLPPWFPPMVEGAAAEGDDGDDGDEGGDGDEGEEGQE

[9] = target: T7, Lytic switch protein BZLF1 (Epstein-Barr virus (strain B95-8) (HHV-4) (Human herpesvirus 4), UniProt P03206); assay: inhibition of BZLF1 ZTA DNA binding – biochemical, fluorescence polarization, Epstein-Barr virus, 1536-well, counter-screen for EBNA-1 inhibitor project, dose response (AID 2377); parameters: species or system human gammaherpesvirus 4;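 also: fluorescence polarization of Cy5-labelled ZRE DNA probe bound by purified Zta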
T7 sequence (P03206 whole entry): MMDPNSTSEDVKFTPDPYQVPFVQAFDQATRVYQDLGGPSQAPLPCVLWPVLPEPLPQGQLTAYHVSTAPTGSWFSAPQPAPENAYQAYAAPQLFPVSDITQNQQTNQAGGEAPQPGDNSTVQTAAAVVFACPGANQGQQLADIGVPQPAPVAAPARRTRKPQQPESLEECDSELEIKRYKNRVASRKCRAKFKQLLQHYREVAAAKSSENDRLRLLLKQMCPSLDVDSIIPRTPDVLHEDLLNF

H9c2 = assay: cells; assay type: functional, cell-based; conditions: Rattus norvegicus, H9c2, Myocardium;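 also: confirmatory concentration-response retest of ultra-high-throughput screening hits for modulation of myocardial damage; cell death induced by hydrogen peroxide oxidative stress; compound pretreatment for 60 min then peroxide exposure for 2 h; potency is for protecting the cells against peroxide damage rather than for killing them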
[10] = Luminescence Cell-Based Dose Confirmation HTS to Identify Activators of 5'UTR Stem-Loop Driven Alpha-Synuclein mRNA Translation in H4 Neuroglioblastoma Cells. [Related pubchem assays: 1829 (Project Summary), 1814 (Primary HTS)]; assay type: functional
[11] = Luminescence Cell-Based Dose Response HTS to Identify Activators of Luciferase Translation or Activity in H4 […] Cells. [Related pubchem assays: 1829 (Project Summary), 1814 (Primary HTS)]; assay type: functional
H4 = assay: Luminescence Cell-Based Dose Response HTS to Identify Activators of 5'UTR Stem-Loop Driven Prion Protein mRNA Translation in H4 Neuroglioblastoma Cells. [Related pubchem assays: 1829 (Project Summary), 1814 (Primary HTS)]; assay type: functional; conditions: Homo sapiens

Chain of Eukaryotic translation initiation factor 4E (P63073 whole entry): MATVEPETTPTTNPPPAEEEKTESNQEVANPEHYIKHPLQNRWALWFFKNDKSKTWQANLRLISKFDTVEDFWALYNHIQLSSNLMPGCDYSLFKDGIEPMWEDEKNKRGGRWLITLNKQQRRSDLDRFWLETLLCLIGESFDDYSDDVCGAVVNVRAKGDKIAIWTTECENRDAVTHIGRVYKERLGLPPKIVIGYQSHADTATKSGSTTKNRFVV
T3 sequence (Q00975 whole entry): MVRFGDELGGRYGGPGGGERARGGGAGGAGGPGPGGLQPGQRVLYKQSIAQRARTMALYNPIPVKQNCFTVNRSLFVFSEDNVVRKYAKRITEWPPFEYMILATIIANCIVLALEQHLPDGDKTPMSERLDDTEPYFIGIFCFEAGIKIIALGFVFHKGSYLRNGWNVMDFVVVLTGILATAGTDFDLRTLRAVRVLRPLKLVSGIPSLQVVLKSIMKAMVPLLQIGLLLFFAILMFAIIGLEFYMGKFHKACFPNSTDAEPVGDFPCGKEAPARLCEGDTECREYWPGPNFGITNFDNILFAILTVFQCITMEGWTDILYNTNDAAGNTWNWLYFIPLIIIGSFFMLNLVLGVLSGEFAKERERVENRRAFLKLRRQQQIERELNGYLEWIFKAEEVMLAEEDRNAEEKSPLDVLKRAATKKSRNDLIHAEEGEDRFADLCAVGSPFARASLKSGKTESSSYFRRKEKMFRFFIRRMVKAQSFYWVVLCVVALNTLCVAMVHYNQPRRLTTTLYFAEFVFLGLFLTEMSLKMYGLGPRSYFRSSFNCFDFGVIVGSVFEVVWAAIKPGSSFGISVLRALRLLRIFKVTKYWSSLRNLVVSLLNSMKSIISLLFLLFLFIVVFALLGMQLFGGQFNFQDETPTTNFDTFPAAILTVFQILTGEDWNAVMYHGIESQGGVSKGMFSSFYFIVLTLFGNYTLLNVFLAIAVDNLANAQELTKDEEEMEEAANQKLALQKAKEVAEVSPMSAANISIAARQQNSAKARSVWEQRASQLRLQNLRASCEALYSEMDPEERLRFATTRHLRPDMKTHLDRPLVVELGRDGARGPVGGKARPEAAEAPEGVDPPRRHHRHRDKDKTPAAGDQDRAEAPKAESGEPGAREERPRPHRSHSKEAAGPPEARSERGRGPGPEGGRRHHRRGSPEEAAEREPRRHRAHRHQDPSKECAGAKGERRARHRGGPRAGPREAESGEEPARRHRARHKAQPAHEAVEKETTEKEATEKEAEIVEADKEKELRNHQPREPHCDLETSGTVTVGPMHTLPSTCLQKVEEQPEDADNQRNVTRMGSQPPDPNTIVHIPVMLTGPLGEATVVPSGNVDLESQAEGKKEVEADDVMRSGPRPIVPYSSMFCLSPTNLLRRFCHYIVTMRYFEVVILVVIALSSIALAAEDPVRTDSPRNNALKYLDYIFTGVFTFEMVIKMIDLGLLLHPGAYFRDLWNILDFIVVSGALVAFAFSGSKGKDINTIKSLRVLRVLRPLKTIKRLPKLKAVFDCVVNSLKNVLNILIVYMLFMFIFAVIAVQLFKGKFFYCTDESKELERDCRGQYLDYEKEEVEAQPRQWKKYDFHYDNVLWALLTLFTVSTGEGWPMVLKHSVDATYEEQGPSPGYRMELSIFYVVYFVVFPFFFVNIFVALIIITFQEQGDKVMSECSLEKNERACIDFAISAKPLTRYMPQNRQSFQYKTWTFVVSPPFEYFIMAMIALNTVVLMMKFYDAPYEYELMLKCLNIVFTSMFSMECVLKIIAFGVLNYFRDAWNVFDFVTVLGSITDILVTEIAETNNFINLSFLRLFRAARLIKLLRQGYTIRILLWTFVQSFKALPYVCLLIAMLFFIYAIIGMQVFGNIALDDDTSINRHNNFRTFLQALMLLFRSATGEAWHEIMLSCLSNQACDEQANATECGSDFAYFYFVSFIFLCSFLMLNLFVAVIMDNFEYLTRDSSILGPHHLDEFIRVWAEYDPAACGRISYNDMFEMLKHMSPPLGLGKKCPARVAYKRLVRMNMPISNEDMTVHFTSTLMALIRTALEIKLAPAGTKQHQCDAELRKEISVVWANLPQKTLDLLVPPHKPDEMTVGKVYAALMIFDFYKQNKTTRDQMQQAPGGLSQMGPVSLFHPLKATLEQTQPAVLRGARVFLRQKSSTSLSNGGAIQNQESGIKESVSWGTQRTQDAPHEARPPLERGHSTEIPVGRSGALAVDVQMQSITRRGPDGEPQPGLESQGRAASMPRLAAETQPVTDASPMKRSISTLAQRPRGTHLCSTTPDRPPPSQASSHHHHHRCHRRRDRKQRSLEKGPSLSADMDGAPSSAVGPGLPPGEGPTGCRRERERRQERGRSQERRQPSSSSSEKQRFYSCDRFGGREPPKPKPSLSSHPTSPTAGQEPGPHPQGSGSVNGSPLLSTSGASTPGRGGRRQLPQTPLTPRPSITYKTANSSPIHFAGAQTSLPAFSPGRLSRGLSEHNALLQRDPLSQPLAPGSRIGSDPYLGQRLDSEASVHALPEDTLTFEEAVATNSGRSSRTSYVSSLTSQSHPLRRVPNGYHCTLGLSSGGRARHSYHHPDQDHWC
T3 sequence (Q02410 whole entry): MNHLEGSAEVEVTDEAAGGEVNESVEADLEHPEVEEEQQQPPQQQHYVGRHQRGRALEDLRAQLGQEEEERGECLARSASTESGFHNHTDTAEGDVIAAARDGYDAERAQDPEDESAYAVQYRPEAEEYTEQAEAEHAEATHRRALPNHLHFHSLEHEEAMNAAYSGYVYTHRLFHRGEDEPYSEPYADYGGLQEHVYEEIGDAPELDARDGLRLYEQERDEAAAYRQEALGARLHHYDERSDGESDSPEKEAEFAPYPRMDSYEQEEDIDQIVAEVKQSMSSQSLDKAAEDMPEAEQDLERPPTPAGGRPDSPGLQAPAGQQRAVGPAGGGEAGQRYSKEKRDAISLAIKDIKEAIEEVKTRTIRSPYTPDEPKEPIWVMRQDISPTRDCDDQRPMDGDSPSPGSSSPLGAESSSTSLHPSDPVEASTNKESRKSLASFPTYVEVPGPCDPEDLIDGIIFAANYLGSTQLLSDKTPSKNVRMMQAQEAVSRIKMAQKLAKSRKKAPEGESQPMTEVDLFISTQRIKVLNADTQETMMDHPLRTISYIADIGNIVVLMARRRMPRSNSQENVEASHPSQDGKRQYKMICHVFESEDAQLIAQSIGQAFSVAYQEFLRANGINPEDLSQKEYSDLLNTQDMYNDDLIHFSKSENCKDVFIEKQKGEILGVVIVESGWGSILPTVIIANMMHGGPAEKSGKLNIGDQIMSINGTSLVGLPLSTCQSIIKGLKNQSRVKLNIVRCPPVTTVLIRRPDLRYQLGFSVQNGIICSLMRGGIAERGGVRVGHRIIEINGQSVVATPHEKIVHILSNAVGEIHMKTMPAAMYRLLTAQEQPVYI
Chain of Tumor necrosis factor (P01375 whole entry, the tested form may be a part): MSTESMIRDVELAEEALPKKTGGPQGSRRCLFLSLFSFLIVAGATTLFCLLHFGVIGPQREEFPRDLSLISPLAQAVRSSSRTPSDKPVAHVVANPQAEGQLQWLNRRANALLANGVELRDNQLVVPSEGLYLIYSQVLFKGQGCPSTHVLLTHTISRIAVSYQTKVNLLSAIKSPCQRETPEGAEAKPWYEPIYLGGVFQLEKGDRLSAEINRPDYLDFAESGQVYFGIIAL

N#Cc1c(C(F)(F)F)cc(-c2ccccc2)nc1SCc1nc(N)nc(N2CCOCC2)n1
CC50 [1]: > 40 µM (active)
IC50 (Estrogen receptor): > 50 µM (not active)
Ki (fMet-Leu-Phe receptor): > 66.7 µM (inactive)

COc1ccc(CCNC2CCCCC2)cc1
EC50 [2]: > 50 µM (active)

COC/C=C/C1=CC2=CC(=O)C(C)(OC(=O)c3cnc4ccccc4n3)C(=O)C2=CN1c1ccc(CO)cc1 (stereo unspecified)
IC50 [3]: 10.4 µM (active)
IC50 [4]: 11.2 µM (active)

Cc1cccc(NC(=S)NC2CCCCC2)n1
IC50 [3]: 9.58 µM (active)
IC50 [4]: > 50 µM (inactive)

O=C(Nc1ccnn1C1CCN(CCCC2CCCC2)CC1)c1ccccc1Cl
EC50 [5]: 1.68 µM (active)

CCCCn1cnc2cc(NCc3cccc(OC)c3O)ccc21
EC50 [2]: > 50 µM (active)

COc1ccc(Sc2nc(-c3ccccc3)ncc2C(=O)O)cc1
EC50 [5]: 5.96 µM (active)

CC12CC3(C)CC(C)(C1)CC(NC(=O)N1CCCC1)(C2)C3
EC50 [5]: 7.5 µM (active)

C/C=C/C=C\C(=O)Nc1cccc(C2=NOC3(C2)C[C@H](C(N)=O)N(C(=O)/C=C/C)C3)c1 (stereo partly specified)
IC50 [3]: 9.88 µM (active)
IC50 [4]: 6.79 µM (active)

COc1ccc(CNC2=NC(=O)CC(C(=O)Nc3ccc(F)cc3)S2)cc1 (stereo unspecified)
IC50 [6]: > 64 µM (inactive)

COc1ccc(S(=O)(=O)N2CCC(C(=O)NCc3cccc(OC)c3)CC2)cc1
IC50 [6]: > 64 µM (inactive)

O=C(CSc1nc2scc(-c3ccccc3)c2c(=O)[nH]1)Nc1ccc(C(F)(F)F)cc1
IC50 (Tumor necrosis factor): 752 nM (active)
IC50 [7]: 1.65 µM (active)
IC50 (HEK293): 10.3 µM (active)

CSc1ccccc1NC(=O)c1ccccc1C
IC50 [6]: 50 µM (inactive)

C/C(=N\NC(=O)c1c(Br)c(C)nn1C)c1ccc(NC(=O)c2ccoc2C)cc1
EC50 [2]: > 50 µM (active)
IC50 [8]: 15.7 µM (not active)
IC50 [9]: > 111 µM (not active)
IC50 (H9c2): > 79 µM (inactive)

COc1ccc(C2CC2/C(=N/O)c2ccccc2)cc1 (stereo unspecified)
EC50 [5]: 2.99 µM (active)

CCOC(=O)c1ccc(N2Cc3ccccc3/C2=N\C(=O)c2cccc([N+](=O)[O-])c2)cc1
EC50 [2]: > 50 µM (active)
EC50 [10]: 39.1 µM (active)
EC50 [11]: 12.3 µM (active)
EC50 (H4): 6.09 µM (active)

COc1ccc(/C=C2\SC(=S)N(CC(=O)NNC(=O)c3ccncc3)C2=O)cc1
IC50 [3]: > 56.8 µM (not active)
IC50 [4]: > 50 µM (inactive)
